Where “and” joins values, the source holds several entries; their conditions need not be identical. Identical values can stand only once.
Legend:
Type in all cases: in vivo
Veronica persica = test: Field trial in winter oilseed rape, pre-emergence, % control
Protocol: (§1) Field trials were conducted on various moncotyledonous weeds and dicotyledonous weeds and the effect of D-isomer of Napropamide was studied to understand the selective and effective control of dicotyledonous weeds over monocotyledonous weeds. The effect of D-isomer of Napropamide in comparison to racemic napropramide and untreated was studied, which is concluded hereinbelow:
(§2) Several small plot replicated trials were carried out to evaluate and/or compare the efficacy of D-Napropamide against a range of indicated annual broadleaved and grass weed species in the indicated crops. No problems were encountered during mixing or application of any of the product formulations or tank mixtures under test.
(§3) In each of the reported data, the homogeneity of variance was tested by Bartlett's test. Wherever this test indicated no homogeneity of variance, the transformed values were used for analysis of variance. Assessment data was then analyzed using a two-way analysis of variance (ANOVA) on untransformed and transformed data. The probability of no significant differences occurring between treatment means was calculated as the F probability value (p(F)). A mean comparison test was only performed and reported when the treatment of F that was calculated during analysis of variance was significant at the observed significance level specified for the mean comparison test. Where the data was transformed, treatment means in the reports were presented in their detransformed state, with the appropriate letter test and mean descriptions (LSD and standard deviation) derived from the transformed ANOVA.
(§4) Trials were conducted to evaluate the selectivity and efficacy of D-isomer of Napropamide when applied pre-emergence to oilseed rape crop. The % control of weed was assessed at regular intervals.

Senecio vulgaris [1] = test: as above
Protocol: as §1, §2, §3, §4

Triticum aestivum = test: as above
Protocol: as §1, §2, §3, §4

Aperaspica-venti = test: as above
Protocol: as §1, §2, §3, §4

Fallopia convolvulus = test: as above
Protocol: as §1, §2, §3, §4

Cirsium arvense = test: as above
Protocol: as §1, §2, §3, §4

Stellaria media = test: Pre-emergence glasshouse pot study, seedling emergence and growth (OECD guideline); details: for Mean Final Foliar Fresh Weights Expressed as Percentage of Untreated Controls / Mean Final Foliar Fresh Weights: Stellaria media; for Mean Final Foliar Fresh Weights: 21 days after 50% emergence, untreated 1.44
Protocol: (§5) A study was carried out to determine the relative biological activity of the D and L isomers of Napropamide when applied pre-emergence to one monocotyledon and one dicotyledon species. Napropamide, containing 450 grammes active substance per liter (g a.s./L) formulated as a suspension concentrate and the D-isomer of Napropamide (1000 g a.s./L) were applied at a range of concentrations from 0.1575 to 1.26 kilograms of active substance per hectare (kg a.s/Ha).
(§6) EC50 values in kg a.s./Ha were calculated from the dose response data using final foliar fresh weight data for each species and was used to determine the relative biological activity of the D and L isomers of Napropamide. The methodology was based on the OECD guideline […], according to the revision of July 2006 for seedling emergence and growth. The study was conducted to GLP standards.
(§7) Seeds were sown directly into non-porous plastic pots containing the following mix of soil: 10 L of sterile loam+4 L of coarse grit (washed quartztite, nominal 4 mm)+10 L of sand. This soil mix was characterized as a sandy loam with an organic carbon content of 1.5% and pH of 7.2. Details of the plant species, number of seeds per pot and pot size are shown below. All seeds were sown 1-2 cm deep.
(§8) The highest concentration of Napropamide was prepared by measuring a calculated volume by weight and diluting with tap water to the full required volume. Lower concentrations were prepared by serial dilution with water. D-Napropamide was prepared by dissolving the calculated weight in acetone and adding water to give the full required volume in 50:50 acetone+water. Lower concentrations were prepared by serial dilution with 50:50 acetone+water. D-Napropamide dissolved completely.
(§9) The sprayer was calibrated within 24 hours prior to application by weight of 15 applications of water to six 86 mm ID petri dishes. The total weight of water over a known area enabled a simple calculation giving the volume rate to be made. The volume rate achieved was within the range specified in the study plan (200 L/Ha±10%).
(§10) Replication was 5 pots per treatment for each plant species. After application, pots were placed on the bench in glasshouse in randomized blocks. Plants were assessed for emergence, mortality and visual injury (expressed as a percentage of the untreated control: 0%=no injury, 1-39%=slight injury, 40-69%=moderate injury, 70-99%=severe injury and 100%=all plants dead) at 14 and 21 days after 50% emergence in the untreated controls. Fresh weights (biomass above soil level) were also recorded 21 days after 50% emergence in the untreated controls. Plants were fully turgid at the time of harvest.
(§11) Assessment data was recorded on pro-forma sheets and entered into Gylling ARM 7 software. EC50 values were calculated using audited means data from the final assessments (21 day). Gylling ARM 7.0 software used a simple probit—maximum likelihood estimation method with 99% confidence level. The EC50 values generated were then visually checked against the means data table to verify they appeared correct.

Poa annua = test: as above; details: for Mean Final Foliar Fresh Weights Expressed as Percentage of Untreated Controls / Mean Final Foliar Fresh Weights: Poa annua; for Mean Final Foliar Fresh Weights: 21 days after 50% emergence, untreated 0.90
Protocol: as §5, §6, §7, §8, §9, §10, §11

Senecio vulgaris [2] = test: Field trial on strawberries, pre-emergence, visual % control
Protocol: as §1, §2, §3
(§12) Trial was carried out on strawberries to evaluate the efficacy and selectivity of D-Napropamide and equivalent rate of Devrinol (Napropramide) applied pre-emergence. […]

Papaver rhoeas = test: as above
Protocol: as §1, §2, §3, §12

[3] = 450 g/L @ 1.6 L/Ha, listed as D Napropamide
[4] = rate 0.1575 kg/Ha pre-emergence
[5] = dicotyledonous weeds (Stellaria media EC50)
[6] = monocotyledonous weeds (Poa annua EC50)
[7] = 3.0 L/Ha of 450 g/L formulation
[8] = 4.2 L/Ha of 450 g/L formulation
[9] = 8.5 L/Ha of 450 g/L formulation

CCN(CC)C(=O)[C@@H](C)Oc1cccc2ccccc12 [D-Napropamide, D-(−)-N,N-diethyl-2-(α-naphthoxy)propionamide]
Percentage Control at 63 DAA (Veronica persica; 450 g/L @ 1.4 L/Ha): 100.00% | Percentage Control at 63 DAA (Veronica persica; 450 g/L @ 1.6 L/Ha): 100.00% | Conclusion: efficacy in control vis-à-vis Napropamide at an equivalent dosage (Veronica persica; Veronica persica, dicot): superior efficacy | Percentage Control at 214 DAA (Senecio vulgaris [1]; [3]): 82.15% and 94.72% | Conclusion: efficacy in control vis-à-vis Napropamide at an equivalent dosage (Senecio vulgaris [1]; Senecio vulgaris, dicot): superior efficacy | Percentage Control at 51 DAA (Triticum aestivum; 450 g/L @ 1.4 L/Ha): 0.00% | Percentage Control at 72 DAA (Triticum aestivum; 450 g/L @ 1.4 L/Ha): 0.00% | Percentage Control at 51 DAA (Triticum aestivum; 450 g/L @ 1.6 L/Ha): 0.00% | Percentage Control at 72 DAA (Triticum aestivum; 450 g/L @ 1.6 L/Ha): 0.00% | Percentage Control at 51 DAA (Triticum aestivum; 450 g/L @ 1.8 L/Ha): 0.00% | Percentage Control at 72 DAA (Triticum aestivum; 450 g/L @ 1.8 L/Ha): 0.00% | Percentage Control at 51 DAA (Triticum aestivum; 450 g/L @ 2.0 L/Ha): 0.00% | Percentage Control at 72 DAA (Triticum aestivum; 450 g/L @ 2.0 L/Ha): 0.00% | Conclusion: control of the weed (Triticum aestivum; Triticum aestivum, monocot): negligible control | Percentage Control at 63 DAA (Aperaspica-venti; 450 g/L @ 1.4 L/Ha): 35.00% | Percentage Control at 63 DAA (Aperaspica-venti; 450 g/L @ 1.6 L/Ha): 58.75% | Percentage Control at 63 DAA (Aperaspica-venti; [3]): 52.50% | Conclusion: efficacy in control vis-à-vis Napropamide at an equivalent dosage (Aperaspica-venti; Aperaspica-venti, monocot): poor efficacy | Percentage Control at 63 DAA (Fallopia convolvulus; 450 g/L @ 1.6 L/Ha): 100.00% | Percentage Control at 63 DAA (Fallopia convolvulus; 450 g/L @ 2.0 L/Ha): 100.00% | Conclusion: efficacy in control vis-à-vis Napropamide at an equivalent dosage (Fallopia convolvulus; Fallopia convolvulus, dicot): superior efficacy | Percentage Control at 51 DAA (Cirsium arvense; 450 g/L @ 1.6 L/Ha): 100.00% | Conclusion: control of the weed at equivalent dosage (Cirsium arvense; Cirsium arvense, dicot): superior control | EC50 based on the final fresh weights (Stellaria media; Stellaria media (dicot), 21 day assessment, probit): 0.054 kg/Ha | Mean Final Foliar Fresh Weights Expressed as Percentage of Untreated Controls (Stellaria media; rate 0.1575 kg/Ha): 35% | Mean Final Foliar Fresh Weights (Stellaria media; [4]): 0.498 g | Mean Final Foliar Fresh Weights Expressed as Percentage of Untreated Controls (Stellaria media; rate 0.315 kg/Ha): 14% | Mean Final Foliar Fresh Weights (Stellaria media; rate 0.315 kg/Ha pre-emergence): 0.198 g | Mean Final Foliar Fresh Weights Expressed as Percentage of Untreated Controls (Stellaria media; rate 0.630 kg/Ha): 12% | Mean Final Foliar Fresh Weights (Stellaria media; rate 0.63 kg/Ha pre-emergence): 0.17 g | times more active than L-Napropamide (Stellaria media; [5]): ~23.33 times | times more active than racemic Napropamide (Stellaria media; [5]): about 4.07 times | EC50 based on the final fresh weights (Poa annua; Poa annua (monocot), 21 day assessment, probit): 0.44 kg/Ha | Mean Final Foliar Fresh Weights Expressed as Percentage of Untreated Controls (Poa annua; rate 0.1575 kg/Ha): 100% | Mean Final Foliar Fresh Weights (Poa annua; [4]): 0.93 g | Mean Final Foliar Fresh Weights Expressed as Percentage of Untreated Controls (Poa annua; rate 0.315 kg/Ha): 71% | Mean Final Foliar Fresh Weights (Poa annua; rate 0.315 kg/Ha pre-emergence): 0.64 g | Mean Final Foliar Fresh Weights Expressed as Percentage of Untreated Controls (Poa annua; rate 0.630 kg/Ha): 50% | Mean Final Foliar Fresh Weights (Poa annua; rate 0.63 kg/Ha pre-emergence): 0.45 g | more active than L-Napropamide (Poa annua; [6]): ~2.86 times | times more active than racemic Napropamide (Poa annua; [6]): about 1.63 times | Percentage Control at 70 DAA (Senecio vulgaris [2]; [7]): 75.0% | Percentage Control at 70 DAA (Senecio vulgaris [2]; [8]): 50.0% | Percentage Control at 70 DAA (Senecio vulgaris [2]; [9]): 75.0% | Conclusion: efficacy in control vis-à-vis Napropamide at an equivalent dosage (Senecio vulgaris [2]; Senecio vulgaris): surprising efficacy | Percentage Control at 70 DAA (Papaver rhoeas; [7]): 71.7% | Percentage Control at 70 DAA (Papaver rhoeas; [8]): 95.0% | Percentage Control at 70 DAA (Papaver rhoeas; [9]): 97.5% | Conclusion: efficacy in control vis-à-vis Napropamide at an equivalent dosage (Papaver rhoeas; Papaver rhoeas): surprising efficacy

From US9307765B2, “Selective weed control using D-napropamide” (UPL Limited, priority 2013, dated 2016)
